Assay [1] has as its system normal mouse fibroblast (BALB/3T3) cells. The assay is described as follows: Antiproliferative assay (MTT or SRB), normal fibroblasts BALB/3T3. The class given is cell-based. As to conditions: Balb/3T3 normal mouse fibroblasts; read-out: IC50 ± SD, antiproliferative activity. As to the method:
Anticancer drugs are toxic to cancer cells, but also show some toxicity to healthy cells. […] The selectivity indexes for thiazoles 3a–3j against MV4-11 and A-549 cells were in general much higher than for MDA-MB-231 and UMUC-3 cells.
(§1) Cell preparation, an in vitro antiproliferative assay, and MTT and SRB cytotoxic tests were performed according to the literature.

Assay [2] deals with lung carcinoma (A549) cells. In words: Antiproliferative assay (MTT or SRB), A549. In kind it is cell-based, human. As to conditions: for IC50: Homo sapiens, A549, A-549, read-out: IC50 ± SD, antiproliferative activity; for Calculated Selectivity Index SI: IC50 Balb/3T3 / IC50 A-549. As to the method:
as §1

In assay [3] the test system is A549 cells. The assay is described as follows: Cell cycle analysis, PI staining flow cytometry. In kind it is cell-based, human. Particulars: 48 h, control 6.20 ± 0.23%. As to the method: The rate of cell apoptosis and necrosis was detected using Annexin V-FITC/PI double staining. […] Compound 3e turned out to be a stronger inducer of apoptosis than 3c. […] In turn, compound 3c induced apoptosis only at the concentrations of 10 and 20 µM, and the percentage of cells undergoing apoptosis increased from 6.05 ± 0.17% in the control to 10.14 ± 0.76% and 14.67 ± 0.68%, respectively (Figure 4B). Moreover, compound 3e at a concentration of 5 µM induced apoptosis to a similar level as cisplatin (CDDP) used at a concentration of 4 µM. To identify the mechanism of the 3c- and 3e-induced apoptosis in the A549 cells, the activation of effector caspase-3 was evaluated by flow cytometry. […] To further explore the antiproliferative activity of compounds 3c and 3e, the influence of both compounds on the distribution of cell cycle phases in the A549 cells was analyzed. […] The G2 checkpoint prevents cells from entering mitosis when DNA is damaged, providing an opportunity for repair and stopping the proliferation of damaged cells. […] Apoptosis is a crucial process involved in the regulation of tumor formation and in the treatment response; therefore, cancer therapy has been linked to activation of the apoptosis signal transduction pathway. Caspase-3, an executioner caspase, plays an important role in apoptosis and becomes a primary target for cancer treatment.
The fluorescence-activated cell sorting (FACS) technique was employed to analyze the 3c- and 3e-induced cell death, the activation of executive caspase-3, and the cell cycle in the A549 cells. The quantitative analysis of apoptosis and necrosis was performed using an Annexin V-fluorescein isothiocyanate (FITC)/ propidium iodide (PI) apoptosis kit (BD Biosciences, BD Pharmingen™, San Jose, CA, USA) as previously described. To determine the active form of caspase-3, the A549 cells were plated into 6-well plates at a density of 6 × 10^5 cells/well. The next day, the growth medium was replaced with a fresh one supplemented with compound 3c or 3e (10, 20, and 40 µM) or the DMSO vehicle (0.1%; control cells). After 48-h incubation, the samples were harvested and the level of active caspase-3 was determined using the phycoerythrin (PE) Active Caspase-3 Apoptosis Kit (BD Pharmingen™) according to the manufacturer’s instructions. The stained cells were analyzed using FACS Calibur, and data were analyzed using Cell Quest Pro Version 6.0 (BD Biosciences, San Jose, CA, USA) for the Macintosh operating system. The results were calculated as a percent of cells with active caspase-3 among all the analyzed cells. The cell cycle analysis was performed by determination of the DNA contents on the basis of PI staining as previously described.
Figure 6 Effect of compounds 3c and 3e on cell cycle distribution in A549 cells. After the treatment with the indicated concentrations of compounds 3c and 3e for 48 h, the cells were stained with propidium iodide and analyzed by flow cytometry. (A) Representative DNA histograms of A549 cells treated with compounds 3c and 3e. (B,C) Statistical analysis of the percentages of A549 cells in the sub-G1, G0/G1, S, and G2/M phases after treatment with compounds 3c and 3e, respectively. Data are expressed as means ± SD from three independent experiments. ** p < 0.01 and *** p < 0.001 in comparison to the control; one-way ANOVA followed by Tukey’s post hoc test.
(In flow cytometry, cells or beads pass a laser one at a time.)

Assay [4] concerns caspase-3 in A549 cells. The assay is described as follows: Active caspase-3 flow cytometry. The class given is cell-based, human. Particulars: A549, 48 h; 10, 20 and 40 µM per method. As to the method:
The rate of cell apoptosis and necrosis was detected using Annexin V-FITC/PI double staining. […] Compound 3e turned out to be a stronger inducer of apoptosis than 3c. […] In turn, compound 3c induced apoptosis only at the concentrations of 10 and 20 µM, and the percentage of cells undergoing apoptosis increased from 6.05 ± 0.17% in the control to 10.14 ± 0.76% and 14.67 ± 0.68%, respectively (Figure 4B). Moreover, compound 3e at a concentration of 5 µM induced apoptosis to a similar level as cisplatin (CDDP) used at a concentration of 4 µM. To identify the mechanism of the 3c- and 3e-induced apoptosis in the A549 cells, the activation of effector caspase-3 was evaluated by flow cytometry. […] To further explore the antiproliferative activity of compounds 3c and 3e, the influence of both compounds on the distribution of cell cycle phases in the A549 cells was analyzed. […]
The fluorescence-activated cell sorting (FACS) technique was employed to analyze the 3c- and 3e-induced cell death, the activation of executive caspase-3, and the cell cycle in the A549 cells. The quantitative analysis of apoptosis and necrosis was performed using an Annexin V-fluorescein isothiocyanate (FITC)/ propidium iodide (PI) apoptosis kit (BD Biosciences, BD Pharmingen™, San Jose, CA, USA) as previously described. […] The results were calculated as a percent of cells with active caspase-3 among all the analyzed cells. […]

Assay [5] has as its system human biphenotypic B myelomonocytic leukemia (MV4-11) cells. The assay is described as follows: Antiproliferative assay (MTT or SRB), MV4-11. In kind it is cell-based. As to conditions: for IC50: Homo sapiens, MV4-11, MV-4-11, read-out: IC50 ± SD, antiproliferative activity; for Calculated Selectivity Index SI: IC50 Balb/3T3 / IC50 MV-4-11. As to the method:
as §1

The structures appear in SMILES notation.

In general, IC50 refers to the concentration needed to halve the response being measured. Turning to `CCC1(CC)C(=O)N(c2ccc(-c3csc(Nc4cc(OC)c(OC)c(OC)c4)n3)cc2)C1=O` [3c, 3,3-Diethyl-1-(4-(2-(3,4,5-trimethoxyphenylamino)thiazol-4-yl)phenyl)azetidine-2,4-dione], the values for the IC50 in assay [1], in assay [2] and in assay [5] were 7.42 ± 1.04 µM, 6.4 ± 0.08 µM and 4.59 ± 2.03 µM, respectively. Moreover, the results for the “Calculated Selectivity Index SI” value in assay [2] and in assay [5] were 1.16 and 1.62, respectively. Also, the “G2/M fraction of A549 cells” value in assay [3] (5 µM) worked out at 9.69 ± 0.77%; in assay [3] (10 µM) it was 15.68 ± 5.31%; in assay [3] (20 µM), 29.04 ± 1.09%. Besides, the “number of cells with active caspase 3” value in assay [4] was “concentration-dependent increase in the number of cells with active caspase 3”.

`CCC1(CC)C(=O)N(c2ccc(-c3csc(Nc4ccc(S(N)(=O)=O)cc4)n3)cc2)C1=O` [3e, 4-(4-(4-(3,3-Diethyl-2,4-dioxoazetidin-1-yl)phenyl)thiazol-2-ylamino)benzenesulfo-namide]: the IC50 in assay [1] is 6.57 ± 0.21 µM; in assay [2], 6.32 ± 0.89 µM; in assay [5], 6.23 ± 0.42 µM. In addition, the figures for the “Calculated Selectivity Index SI” value in assay [2] and in assay [5] were 1.04 and 1.05, respectively. Besides, the “G2/M fraction of A549 cells” value in assay [3] (5 µM) is listed as 9.08 ± 0.69%; in assay [3] (10 µM), 10.83 ± 1.06%; in assay [3] (20 µM) it was 35.78 ± 0.46%. Besides, in assay [4], the “number of cells with active caspase 3” value was “concentration-dependent increase in the number of cells with active caspase 3”.

(Values after paper PMC9321231.)
